Source: paper PMC7972864, “Fucoxanthin Prevents 6-OHDA-Induced Neurotoxicity by Targeting Keap1” (Oxidative Medicine and Cellular Longevity, 2021)

Target: Keap1 (Homo sapiens, UniProt Q14145)
Assay: biolayer interferometry (Octet K2), biotinylated human Keap1 on the sensor
Assay type: binding

Sequence of Keap1 (Q14145 whole entry): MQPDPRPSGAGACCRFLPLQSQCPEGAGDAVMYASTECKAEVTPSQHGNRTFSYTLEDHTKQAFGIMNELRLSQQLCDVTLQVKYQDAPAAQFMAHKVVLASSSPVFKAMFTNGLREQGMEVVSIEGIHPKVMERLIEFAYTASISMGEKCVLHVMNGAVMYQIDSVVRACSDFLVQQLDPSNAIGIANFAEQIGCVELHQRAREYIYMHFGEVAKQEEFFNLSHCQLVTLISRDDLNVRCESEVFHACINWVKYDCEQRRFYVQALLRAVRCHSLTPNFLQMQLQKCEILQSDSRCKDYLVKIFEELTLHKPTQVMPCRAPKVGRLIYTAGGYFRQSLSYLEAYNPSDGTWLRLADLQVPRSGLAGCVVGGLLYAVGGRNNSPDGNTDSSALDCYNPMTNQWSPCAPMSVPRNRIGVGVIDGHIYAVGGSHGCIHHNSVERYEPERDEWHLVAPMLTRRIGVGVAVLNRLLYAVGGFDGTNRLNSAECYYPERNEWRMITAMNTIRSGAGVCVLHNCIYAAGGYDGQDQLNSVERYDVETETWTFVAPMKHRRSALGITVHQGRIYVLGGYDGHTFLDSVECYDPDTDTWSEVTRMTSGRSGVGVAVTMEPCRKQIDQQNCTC

CC(=O)O[C@H]1CC(C)(C)C(=C=C/C(C)=C/C=C/C(C)=C/C=C/C=C(C)/C=C/C=C(\C)C(=O)C[C@@]23O[C@]2(C)C[C@@H](O)CC3(C)C)[C@](C)(O)C1 [FUC, fucoxanthin]
Kd: 5.16E − 5
